Assay results from ChEMBL document CHEMBL4396970, “Benzothiazole-based compounds as potent endothelial lipase inhibitors” (Bioorg Med Chem Lett, 2019).
The source made the active and inactive calls. The rule behind the calls is not given here.

Assays:
[1] = molecular target: Cytochrome P450 2C9 (Homo sapiens, UniProt P11712); assay: Inhibition of CYP2C9 (unknown origin); format: ADME
[2] = molecular target: Cytochrome P450 2C19 (Homo sapiens, UniProt P33261); assay: Inhibition of CYP2C19 (unknown origin); format: ADME
[3] = molecular target: T1, Cytochrome P450 1A2 (Homo sapiens, UniProt P05177); assay: Inhibition of CYP1A2 (unknown origin); format: ADME
T1 sequence (P05177 whole entry): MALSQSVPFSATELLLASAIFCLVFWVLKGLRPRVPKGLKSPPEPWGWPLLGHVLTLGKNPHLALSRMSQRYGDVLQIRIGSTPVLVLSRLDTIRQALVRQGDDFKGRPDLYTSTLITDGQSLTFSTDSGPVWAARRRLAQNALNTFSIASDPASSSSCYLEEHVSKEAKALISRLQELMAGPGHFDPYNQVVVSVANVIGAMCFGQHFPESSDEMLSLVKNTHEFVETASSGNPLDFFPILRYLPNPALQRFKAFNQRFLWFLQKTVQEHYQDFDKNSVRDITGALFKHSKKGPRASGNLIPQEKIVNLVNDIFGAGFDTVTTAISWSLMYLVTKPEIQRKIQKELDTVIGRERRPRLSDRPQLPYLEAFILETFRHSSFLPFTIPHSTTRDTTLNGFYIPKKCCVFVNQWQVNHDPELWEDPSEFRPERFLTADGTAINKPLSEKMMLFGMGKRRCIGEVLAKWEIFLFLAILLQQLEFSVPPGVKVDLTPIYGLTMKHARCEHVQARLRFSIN

[4] = molecular target: T2, Endothelial lipase (Homo sapiens, UniProt Q9Y5X9); assay: Inhibition of endothelial lipase in human serum; format: cell-free
T2 sequence (Q9Y5X9 whole entry): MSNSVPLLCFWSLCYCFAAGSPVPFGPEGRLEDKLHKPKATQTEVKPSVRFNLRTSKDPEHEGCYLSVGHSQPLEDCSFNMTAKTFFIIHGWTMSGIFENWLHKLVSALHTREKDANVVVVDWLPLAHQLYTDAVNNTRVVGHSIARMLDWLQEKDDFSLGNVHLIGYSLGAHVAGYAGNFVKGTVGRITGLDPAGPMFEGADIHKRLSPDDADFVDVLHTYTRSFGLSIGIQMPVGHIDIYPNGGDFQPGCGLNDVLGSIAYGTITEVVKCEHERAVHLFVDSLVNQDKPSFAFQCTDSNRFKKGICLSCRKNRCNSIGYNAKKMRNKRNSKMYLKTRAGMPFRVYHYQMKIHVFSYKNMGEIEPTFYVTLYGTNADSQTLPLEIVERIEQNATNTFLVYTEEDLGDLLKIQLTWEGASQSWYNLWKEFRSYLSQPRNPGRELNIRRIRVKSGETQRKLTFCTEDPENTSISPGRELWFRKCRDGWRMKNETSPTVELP

[5] = molecular target: T3, Hepatic triacylglycerol lipase (Homo sapiens, UniProt P11150); assay: Inhibition of hepatic lipase (unknown origin)
T3 sequence (P11150 whole entry): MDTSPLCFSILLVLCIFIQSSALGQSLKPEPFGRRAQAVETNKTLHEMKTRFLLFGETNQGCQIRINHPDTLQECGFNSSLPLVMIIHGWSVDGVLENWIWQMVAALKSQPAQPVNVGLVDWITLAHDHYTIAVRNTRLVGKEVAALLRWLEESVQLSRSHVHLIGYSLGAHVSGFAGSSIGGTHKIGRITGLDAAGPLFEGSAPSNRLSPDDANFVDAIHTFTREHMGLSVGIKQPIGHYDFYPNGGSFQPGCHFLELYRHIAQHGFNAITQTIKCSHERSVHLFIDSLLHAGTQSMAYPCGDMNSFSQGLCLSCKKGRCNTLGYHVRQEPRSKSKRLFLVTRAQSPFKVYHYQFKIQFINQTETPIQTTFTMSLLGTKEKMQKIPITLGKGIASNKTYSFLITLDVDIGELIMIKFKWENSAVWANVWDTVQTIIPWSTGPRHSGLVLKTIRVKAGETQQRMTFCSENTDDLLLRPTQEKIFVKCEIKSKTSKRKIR

[6] = molecular target: Cytochrome P450 2D6 (Homo sapiens, UniProt P10635); assay: Inhibition of CYP2D6 (unknown origin); format: ADME
[7] = molecular target: Cytochrome P450 3A4 (Homo sapiens, UniProt P08684); assay: Inhibition of CYP3A4 (unknown origin); format: ADME
[8] = Metabolic stability in human liver microsomes assessed as parent compound remaining at 0.5 uM preincubated with compound followed by NADPH addition and measured after 10 mins; format: ADME, Microsome; conditions: read-out: Stability
[9] = Metabolic stability in mouse liver microsomes assessed as parent compound remaining at 0.5 uM preincubated with compound followed by NADPH addition and measured after 10 mins; format: ADME, Microsome; conditions: read-out: Stability
[10] = Permeability of compound at pH 7.4 by PAMPA; format: ADME; conditions: read-out: permeability
[11] = Permeability of compound at pH 5.0 by PAMPA; format: ADME; conditions: read-out: permeability
[12] = Permeability across apical to basolateral side in human Caco2 cells; format: ADME, cell-based; conditions: Caco-2, read-out: permeability
[13] = Permeability across basolateral to apical side in human Caco2 cells; format: ADME, cell-based; conditions: Caco-2, read-out: permeability
[14] = molecular target: T2, Endothelial lipase; assay: Inhibition of endothelial lipase (unknown origin)
[15] = test system: Mus musculus; assay: Antiatherosclerotic in C57BL/6 mouse assessed as change in phospholipid level in plasma at 50 mg/kg, ip qd administrated for 2 days and measured 6 hrs post last dose by FPLC analysis; format: functional, organism-based
[16] = molecular target: T4, Endothelial lipase (Homo sapiens) (UniProt Q9Y5X9); assay: Reversible inhibition of endothelial lipase (unknown origin) assessed as recovery of enzyme activity measured after 24 hrs by dialysis based assay relative to control; set-up: scale not given: the % may be the effect or the level left
T4 sequence (whole entry): T2 sequence (Q9Y5X9 whole entry)

[17] = Cmax in BALB/c mouse at 10 mg/kg, po; format: ADME, organism-based; set-up: dose 10 mg/kg, route oral; conditions: in vivo
[18] = Tmax in BALB/c mouse at 10 mg/kg, po; format: ADME, organism-based; conditions: in vivo
[19] = AUC (0 to 24 hrs) in BALB/c mouse at 10 mg/kg, po; format: ADME, organism-based; set-up: time < 24 hr, dose 10 mg/kg, route oral; conditions: in vivo
[20] = Half life in BALB/c mouse at 10 mg/kg, po; format: ADME, organism-based; conditions: in vivo
[21] = Plasma concentration in BALB/c mouse at 10 mg/kg, po measured at 24 hrs post dose; format: ADME, organism-based
[22] = Cmax in BALB/c mouse at 50 mg/kg, ip; format: ADME, organism-based; set-up: dose 50 mg/kg, route intraperitoneal; conditions: in vivo
[23] = Tmax in BALB/c mouse at 50 mg/kg, ip; format: ADME, organism-based; conditions: in vivo
[24] = AUC (0 to 24 hrs) in BALB/c mouse at 50 mg/kg, ip measured up to 24 hrs; format: ADME, organism-based; set-up: time < 24 hr, dose 50 mg/kg, route intraperitoneal; conditions: in vivo
[25] = Half life in BALB/c mouse at 50 mg/kg, ip; format: ADME, organism-based; conditions: in vivo
[26] = Plasma concentration in BALB/c mouse at 50 mg/kg, ip measured at 24 hrs post dose; format: ADME, organism-based
[27] = test system: Mus musculus; assay: Antiatherosclerotic in C57BL/6 mouse assessed as increase in HDL-cholesterol level in plasma at 50 mg/kg, ip qd administrated for 2 days and measured 6 hrs post last dose by FPLC analysis; format: functional, organism-based
[28] = Tmin in BALB/c mouse at 50 mg/kg, ip; format: ADME, organism-based; conditions: in vivo
[29] = Ratio of Cmin in BALB/c mouse to IC50 for endothelial lipase in human serum; format: ADME; conditions: in vivo

Sequence of Cytochrome P450 2C19 (P33261 whole entry): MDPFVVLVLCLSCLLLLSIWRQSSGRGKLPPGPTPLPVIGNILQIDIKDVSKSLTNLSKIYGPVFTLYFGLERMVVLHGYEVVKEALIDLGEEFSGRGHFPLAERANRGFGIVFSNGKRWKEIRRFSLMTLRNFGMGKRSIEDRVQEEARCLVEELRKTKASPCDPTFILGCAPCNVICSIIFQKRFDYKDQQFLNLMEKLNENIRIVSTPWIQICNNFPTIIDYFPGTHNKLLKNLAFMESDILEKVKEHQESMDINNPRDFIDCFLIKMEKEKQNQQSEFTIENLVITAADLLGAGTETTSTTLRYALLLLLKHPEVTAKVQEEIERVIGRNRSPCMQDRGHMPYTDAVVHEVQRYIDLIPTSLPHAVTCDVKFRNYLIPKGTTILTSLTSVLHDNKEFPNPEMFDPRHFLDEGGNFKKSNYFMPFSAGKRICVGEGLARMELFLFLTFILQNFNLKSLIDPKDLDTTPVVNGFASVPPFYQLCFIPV
Sequence of Cytochrome P450 3A4 (P08684 whole entry): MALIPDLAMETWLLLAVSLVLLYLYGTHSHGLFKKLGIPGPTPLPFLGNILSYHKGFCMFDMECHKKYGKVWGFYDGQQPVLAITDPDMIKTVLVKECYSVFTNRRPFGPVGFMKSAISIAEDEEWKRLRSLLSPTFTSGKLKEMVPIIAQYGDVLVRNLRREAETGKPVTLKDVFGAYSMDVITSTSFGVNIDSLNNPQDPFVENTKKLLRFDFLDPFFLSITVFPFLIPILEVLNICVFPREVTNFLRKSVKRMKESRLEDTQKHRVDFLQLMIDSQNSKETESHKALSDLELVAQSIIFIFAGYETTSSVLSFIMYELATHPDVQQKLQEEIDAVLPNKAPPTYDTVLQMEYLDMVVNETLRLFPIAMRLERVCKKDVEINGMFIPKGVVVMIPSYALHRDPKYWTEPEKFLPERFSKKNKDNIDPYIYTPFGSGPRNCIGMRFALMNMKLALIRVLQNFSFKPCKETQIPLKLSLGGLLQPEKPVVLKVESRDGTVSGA
Sequence of Cytochrome P450 2D6 (P10635 whole entry): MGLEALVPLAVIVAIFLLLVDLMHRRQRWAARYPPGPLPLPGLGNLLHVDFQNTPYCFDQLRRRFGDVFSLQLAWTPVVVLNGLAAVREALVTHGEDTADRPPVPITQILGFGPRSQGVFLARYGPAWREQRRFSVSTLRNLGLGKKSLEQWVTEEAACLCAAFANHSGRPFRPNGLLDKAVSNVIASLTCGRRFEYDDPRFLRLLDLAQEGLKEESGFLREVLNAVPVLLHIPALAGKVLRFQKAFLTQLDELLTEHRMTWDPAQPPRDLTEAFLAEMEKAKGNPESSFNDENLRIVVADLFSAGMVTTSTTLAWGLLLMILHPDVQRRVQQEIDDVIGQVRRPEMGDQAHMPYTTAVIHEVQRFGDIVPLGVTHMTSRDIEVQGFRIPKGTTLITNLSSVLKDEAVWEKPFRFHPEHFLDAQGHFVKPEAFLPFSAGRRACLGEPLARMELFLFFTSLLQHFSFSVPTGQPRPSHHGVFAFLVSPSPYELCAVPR
Sequence of Cytochrome P450 2C9 (P11712 whole entry): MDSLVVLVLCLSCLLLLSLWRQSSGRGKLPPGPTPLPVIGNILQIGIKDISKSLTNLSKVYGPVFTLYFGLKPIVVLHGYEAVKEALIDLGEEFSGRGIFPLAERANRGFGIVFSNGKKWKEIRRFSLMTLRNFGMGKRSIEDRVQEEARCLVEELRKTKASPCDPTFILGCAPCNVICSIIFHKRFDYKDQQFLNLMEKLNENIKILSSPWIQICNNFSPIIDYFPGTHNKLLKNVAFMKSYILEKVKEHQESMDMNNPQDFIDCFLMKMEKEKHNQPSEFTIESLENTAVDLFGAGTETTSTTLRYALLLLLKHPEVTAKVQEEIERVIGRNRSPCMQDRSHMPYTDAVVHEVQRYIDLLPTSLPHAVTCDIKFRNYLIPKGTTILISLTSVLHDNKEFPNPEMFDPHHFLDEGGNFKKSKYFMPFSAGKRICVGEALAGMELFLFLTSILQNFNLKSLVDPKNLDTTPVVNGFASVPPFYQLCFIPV

| SMILES | IC50 [1] | IC50 [2] | IC50 [3] | IC50 [4] | IC50 [5] | IC50 [6] | IC50 [7] | remaining at 10 min, 0.5 µM [8] | remaining at 10 min, 0.5 µM [9] | Papp [10] | Papp [11] | Papp A→B [12] | Papp B→A [13] | IC50 [14] | also measured |
| --- | --- | --- | --- | --- | --- | --- | --- | --- | --- | --- | --- | --- | --- | --- | --- |
| CN1CCN(C(=O)c2ccc(-c3ccc4nc(C(C#N)C(=O)NCC(=O)NC5CC5)sc4c3)cc2)CC1 (racemic) | > 18 µM | > 18 µM | > 18 µM | 0.03 µM | 1.8 µM | > 18 µM | > 18 µM | 78% | 91% | 3 nm/s | 2 nm/s | < 15 nm/s | 30 nm/s | – | – |
| N#CC(C(=O)NCC(=O)NC1COC1)c1nc2ccc(-c3ccc(F)nc3)cc2s1 (racemic) | > 18 µM | > 18 µM | > 18 µM | 0.05 µM | 0.19 µM | > 18 µM | > 18 µM | 87% | 87% | 4 nm/s | 65 nm/s | < 15 nm/s | 349 nm/s | – | – |
| CN(C)C(=O)c1ccc(-c2ccc3nc(C(C#N)C(=O)NCC(=O)NC4CC4)sc3c2)cc1F (racemic) | – | – | – | 0.07 µM | 1.1 µM | – | – | – | – | – | – | – | – | – | – |
| N#CC(C(=O)NCC(=O)NC1CC1)c1nc2ccc(-c3ccc(F)nc3)cc2s1 (racemic) | – | – | – | 0.23 µM | 0.5 µM | – | – | – | – | – | – | – | – | 0.17 µM | – |
| N#CC(C(=O)NCC(=O)NC1CC1)c1nc2ccc(-c3ccc(NC(=O)OCc4ccccc4)cc3)cc2s1 (racemic) | – | – | – | 0.08 µM | 0.0008 µM | – | – | – | – | – | – | – | – | 0.001 µM | – |
| N#CC(C(=O)NCC(=O)NC1CC1)c1nc2ccc(-c3ccc4c(c3)CNC4=O)cc2s1 (racemic) | – | – | – | 0.1 µM | 0.07 µM | – | – | – | – | – | – | – | – | 0.0053 µM | – |
| CN1CCN(C(=O)c2ccc(-c3ccc4nc(C(C#N)C(=O)NCC(=O)NC5CCC5)sc4c3)cc2)CC1 (racemic) | – | – | – | 0.2 µM | 0.49 µM | – | – | – | – | – | – | – | – | 3.1 µM | – |
| N#CC(C(=O)NCC(=O)NC1CC1)c1nc2ccc(-c3ccc(C(=O)N4CCOCC4)cc3)cc2s1 (racemic) | > 18 µM | > 18 µM | > 18 µM | 0.05 µM | 0.3 µM | > 18 µM | > 18 µM | 98% | 100% | 4 nm/s | 104 nm/s | 17 nm/s | 184 nm/s | – | – |
| N#CC(C(=O)NCC(=O)NC1CC1)c1nc2ccc(-c3ccc4c(c3)C(=O)NC4)cc2s1 (racemic) | – | – | – | 0.13 µM | 0.42 µM | – | – | – | – | – | – | – | – | – | – |
| CN(C)C(=O)c1cccc(-c2ccc3nc(C(C#N)C(=O)NCC(=O)NC4CC4)sc3c2)c1 (racemic) | > 18 µM | > 18 µM | > 18 µM | 0.03 µM | 0.72 µM | > 18 µM | > 18 µM | 76% | 99% | 3 nm/s | 84 nm/s | < 15 nm/s | 75 nm/s | – | – |
| N#CC(C(=O)NCC(=O)NC1CC1)c1nc2ccc(-c3ccc(C(=O)N4CCC4)cc3)cc2s1 (racemic) | – | – | – | 0.17 µM | 0.17 µM | – | – | – | – | – | – | – | – | – | – |
| N#CC(C(=O)NCC(=O)N1CCCC1)c1nc2ccc(-c3ccccc3)cc2s1 (racemic) | – | – | – | 1.1 µM | 0.25 µM | – | – | – | – | – | – | – | – | 1.3 µM | – |
| N#CC(C(=O)NCC(=O)NC1CC1)c1nc2ccc(-c3cccc(C(=O)N4CCCCC4)c3)cc2s1 (racemic) | – | – | – | 0.14 µM | 0.035 µM | – | – | – | – | – | – | – | – | – | – |
| N#CC(C(=O)NCC(=O)NC1CC1)c1nc2ccc(-c3ccccc3)cc2s1 (racemic) | > 18 µM | > 18 µM | > 18 µM | 0.051 µM | 0.0054 µM | > 18 µM | > 18 µM | 91% | 86% | 845 nm/s | 1620 nm/s | 20 nm/s | 246 nm/s | – | Activity [15]: inactive; Activity [16]: 88%; Cmax [17]: 6.6 µM; Tmax [18]: 0.25 h; AUC(0-t) at 24 h [19]: 18 µM·h; half-life [20]: 8.5 h; concentration at 24 h [21]: 0.14 µM; Cmax [22]: 28 µM; Tmax [23]: 7 h; AUC(0-t) at 24 h [24]: 330 µM·h; half-life [25]: 4.7 h; concentration at 24 h [26]: 1.66 µM; Activity [27]: inactive; Tmin [28]: 23.8 h; Ratio [29]: > 30 |
